Laboratory results taken from article PMC6430017, “Structural and chemical insights into the covalent-allosteric inhibition of the protein kinase Akt” (Chemical Science, 2019).

What was measured:
Test in all cases: SelectScreen Z'LYTE kinase profiling
Assay type in all cases: biochemical
Conditions in all cases: ATP at apparent KM
SGKL (SGK3) = target: T1, SGKL (SGK3) (Homo sapiens, UniProt Q96BR1)
T1 sequence (Q96BR1 1-496): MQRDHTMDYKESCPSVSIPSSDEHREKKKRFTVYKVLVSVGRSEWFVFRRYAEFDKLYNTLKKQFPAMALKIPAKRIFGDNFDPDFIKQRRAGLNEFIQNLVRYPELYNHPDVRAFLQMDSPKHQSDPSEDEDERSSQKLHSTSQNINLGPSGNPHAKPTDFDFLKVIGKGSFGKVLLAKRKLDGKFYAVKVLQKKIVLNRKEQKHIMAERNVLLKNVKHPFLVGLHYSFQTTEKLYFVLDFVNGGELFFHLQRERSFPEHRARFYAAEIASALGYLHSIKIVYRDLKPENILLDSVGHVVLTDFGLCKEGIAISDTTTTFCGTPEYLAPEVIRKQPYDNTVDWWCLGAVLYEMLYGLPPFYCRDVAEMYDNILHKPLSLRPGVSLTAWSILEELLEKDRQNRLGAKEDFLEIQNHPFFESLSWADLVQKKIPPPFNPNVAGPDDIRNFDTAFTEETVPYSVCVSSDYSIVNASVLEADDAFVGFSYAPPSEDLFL
Experimental: (§1) protein kinases at a compound concentration of 1 µM. Measurements were performed in duplicates
(§2) and at the particular apparent ATP KM of each individual kinase employing the activity based Z’LYTE®
(§3) kinase assay of the SelectScreen® Kinase Profiling Services (ThermoFisher Scientific).
(§4) kinases at a compound concentration of 1 µM. Measurements were performed in duplicates and at
(§5) the particular apparent ATP KM of each individual kinase employing the activity based Z’LYTE® kinase
(§6) assay of the SelectScreen® Kinase Profiling Services (ThermoFisher Scientific).

NTRK2 (TRKB) = NTRK2 (TRKB) (Homo sapiens, UniProt Q16620)
Experimental: as §1, §2, §3, §4, §5, §6

LCK = LCK (Homo sapiens, UniProt P06239)
Experimental: as §1, §2, §3, §4, §5, §6

TXK = target: T2, TXK (Homo sapiens, UniProt P42681)
T2 sequence (P42681 1-527): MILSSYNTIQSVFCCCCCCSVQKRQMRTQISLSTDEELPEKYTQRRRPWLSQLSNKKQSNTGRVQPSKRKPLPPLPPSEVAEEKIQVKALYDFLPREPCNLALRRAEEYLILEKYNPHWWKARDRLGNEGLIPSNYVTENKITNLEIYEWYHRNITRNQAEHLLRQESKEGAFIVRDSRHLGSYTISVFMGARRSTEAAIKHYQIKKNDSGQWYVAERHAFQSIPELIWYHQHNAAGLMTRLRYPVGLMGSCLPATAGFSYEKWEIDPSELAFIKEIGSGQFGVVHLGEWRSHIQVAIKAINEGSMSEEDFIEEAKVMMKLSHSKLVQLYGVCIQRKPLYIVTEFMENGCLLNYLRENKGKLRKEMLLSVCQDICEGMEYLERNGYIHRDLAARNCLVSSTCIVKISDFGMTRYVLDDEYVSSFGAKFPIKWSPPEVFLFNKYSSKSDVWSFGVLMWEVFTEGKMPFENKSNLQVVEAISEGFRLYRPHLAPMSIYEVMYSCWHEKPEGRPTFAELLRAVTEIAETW
Experimental: as §1, §2, §3, §4, §5, §6

PRKD1 (PKC mu) = target: T3, PRKD1 (PKC mu) (Homo sapiens, UniProt Q15139)
T3 sequence (Q15139 1-912): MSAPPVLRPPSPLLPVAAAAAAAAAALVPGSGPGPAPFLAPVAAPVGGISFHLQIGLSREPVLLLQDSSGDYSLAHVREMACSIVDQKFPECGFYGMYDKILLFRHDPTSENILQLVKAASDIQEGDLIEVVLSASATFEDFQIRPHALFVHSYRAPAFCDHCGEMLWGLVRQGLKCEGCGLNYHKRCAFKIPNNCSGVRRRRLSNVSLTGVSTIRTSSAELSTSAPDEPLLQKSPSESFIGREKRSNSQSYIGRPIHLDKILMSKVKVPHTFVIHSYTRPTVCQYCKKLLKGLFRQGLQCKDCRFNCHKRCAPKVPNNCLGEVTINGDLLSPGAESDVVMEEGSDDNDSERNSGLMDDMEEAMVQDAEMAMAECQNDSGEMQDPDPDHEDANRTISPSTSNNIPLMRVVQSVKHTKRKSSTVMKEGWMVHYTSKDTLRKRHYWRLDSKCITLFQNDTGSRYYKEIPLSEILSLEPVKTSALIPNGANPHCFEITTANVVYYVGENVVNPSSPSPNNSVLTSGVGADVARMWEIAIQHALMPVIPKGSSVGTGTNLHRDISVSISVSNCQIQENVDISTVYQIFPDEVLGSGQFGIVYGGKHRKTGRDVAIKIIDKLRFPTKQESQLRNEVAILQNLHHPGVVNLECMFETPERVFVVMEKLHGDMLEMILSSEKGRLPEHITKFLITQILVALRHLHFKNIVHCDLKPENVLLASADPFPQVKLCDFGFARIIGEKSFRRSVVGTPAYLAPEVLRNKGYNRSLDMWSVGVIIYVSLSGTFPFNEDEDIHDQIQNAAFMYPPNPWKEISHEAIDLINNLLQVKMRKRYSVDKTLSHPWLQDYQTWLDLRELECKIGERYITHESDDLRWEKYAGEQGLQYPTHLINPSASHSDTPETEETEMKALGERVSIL
Experimental: as §1, §2, §3, §4, §5, §6

PRKCQ (PKC theta) = PRKCQ (PKC theta) (Homo sapiens, UniProt Q04759)
Experimental: as §1, §2, §3, §4, §5, §6

PRKCA (PKC alpha) = PRKCA (PKC alpha) (Homo sapiens, UniProt P17252)
Experimental: as §1, §2, §3, §4, §5, §6

PRKCB2 (PKC beta II) = PRKCB2 (PKC beta II) (Homo sapiens, UniProt P05771)
Experimental: as §1, §2, §3, §4, §5, §6

ACVR1B (ALK4) = target: T4, ACVR1B (ALK4) (Homo sapiens, UniProt P36896)
T4 sequence (P36896 24-505): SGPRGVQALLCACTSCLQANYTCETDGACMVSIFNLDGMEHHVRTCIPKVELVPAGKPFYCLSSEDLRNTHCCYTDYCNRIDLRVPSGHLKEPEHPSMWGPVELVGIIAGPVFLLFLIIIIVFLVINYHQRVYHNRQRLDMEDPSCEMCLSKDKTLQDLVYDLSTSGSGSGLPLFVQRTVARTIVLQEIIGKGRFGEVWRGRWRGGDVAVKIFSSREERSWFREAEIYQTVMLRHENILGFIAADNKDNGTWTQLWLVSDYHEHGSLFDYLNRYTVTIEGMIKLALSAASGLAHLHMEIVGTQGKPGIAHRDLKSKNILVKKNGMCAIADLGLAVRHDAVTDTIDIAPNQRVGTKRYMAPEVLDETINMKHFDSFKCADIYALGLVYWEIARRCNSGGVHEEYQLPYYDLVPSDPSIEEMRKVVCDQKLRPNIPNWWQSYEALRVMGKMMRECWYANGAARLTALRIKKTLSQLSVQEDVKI
Experimental: as §1, §2, §3, §4, §5, §6

GRK6 = GRK6 (Homo sapiens, UniProt P43250)
Experimental: as §1, §2, §3, §4, §5, §6

MARK2 = MARK2 (Homo sapiens, UniProt Q7KZI7)
Sequence of MARK2 (Q7KZI7 whole entry): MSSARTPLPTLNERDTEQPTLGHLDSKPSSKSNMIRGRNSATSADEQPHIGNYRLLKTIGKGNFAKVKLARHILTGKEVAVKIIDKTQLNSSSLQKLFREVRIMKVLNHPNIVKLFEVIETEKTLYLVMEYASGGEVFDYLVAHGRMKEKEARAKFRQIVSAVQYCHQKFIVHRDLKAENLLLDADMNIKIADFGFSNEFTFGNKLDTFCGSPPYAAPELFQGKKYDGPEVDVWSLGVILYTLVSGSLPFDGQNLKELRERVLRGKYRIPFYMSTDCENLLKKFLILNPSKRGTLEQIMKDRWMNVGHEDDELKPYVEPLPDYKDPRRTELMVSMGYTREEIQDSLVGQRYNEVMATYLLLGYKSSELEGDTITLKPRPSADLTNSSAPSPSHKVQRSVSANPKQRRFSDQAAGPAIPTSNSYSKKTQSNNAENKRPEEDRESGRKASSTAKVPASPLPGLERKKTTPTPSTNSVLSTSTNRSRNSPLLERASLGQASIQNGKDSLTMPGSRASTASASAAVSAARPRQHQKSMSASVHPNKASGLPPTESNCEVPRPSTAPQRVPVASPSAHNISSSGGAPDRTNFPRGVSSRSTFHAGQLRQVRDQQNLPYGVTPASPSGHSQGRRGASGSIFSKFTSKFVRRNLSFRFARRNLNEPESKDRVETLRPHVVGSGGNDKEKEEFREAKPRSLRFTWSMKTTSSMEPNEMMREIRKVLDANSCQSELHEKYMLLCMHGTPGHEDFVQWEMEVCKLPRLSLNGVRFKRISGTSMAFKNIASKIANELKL
Experimental: as §1, §2, §3, §4, §5, §6

Sequence of PRKCQ (PKC theta) (Q04759 whole entry): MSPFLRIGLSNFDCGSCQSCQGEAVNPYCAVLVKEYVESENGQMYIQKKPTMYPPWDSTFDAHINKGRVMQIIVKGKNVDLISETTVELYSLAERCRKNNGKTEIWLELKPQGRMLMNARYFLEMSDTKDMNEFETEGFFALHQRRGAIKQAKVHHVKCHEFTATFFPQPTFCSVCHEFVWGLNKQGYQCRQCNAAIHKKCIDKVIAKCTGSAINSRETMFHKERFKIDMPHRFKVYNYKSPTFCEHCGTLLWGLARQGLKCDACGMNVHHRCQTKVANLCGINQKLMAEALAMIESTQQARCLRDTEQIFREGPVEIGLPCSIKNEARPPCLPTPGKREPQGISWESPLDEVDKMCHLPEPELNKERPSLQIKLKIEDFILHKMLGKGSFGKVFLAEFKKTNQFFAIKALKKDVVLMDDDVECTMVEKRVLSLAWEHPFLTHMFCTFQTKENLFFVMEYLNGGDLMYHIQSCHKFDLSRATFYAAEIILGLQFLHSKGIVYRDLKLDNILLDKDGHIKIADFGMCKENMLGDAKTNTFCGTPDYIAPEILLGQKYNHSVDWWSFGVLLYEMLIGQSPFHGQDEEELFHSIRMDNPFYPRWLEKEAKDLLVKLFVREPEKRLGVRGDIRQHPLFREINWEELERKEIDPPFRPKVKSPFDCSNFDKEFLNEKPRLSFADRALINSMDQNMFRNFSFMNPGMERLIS
Sequence of LCK (P06239 whole entry): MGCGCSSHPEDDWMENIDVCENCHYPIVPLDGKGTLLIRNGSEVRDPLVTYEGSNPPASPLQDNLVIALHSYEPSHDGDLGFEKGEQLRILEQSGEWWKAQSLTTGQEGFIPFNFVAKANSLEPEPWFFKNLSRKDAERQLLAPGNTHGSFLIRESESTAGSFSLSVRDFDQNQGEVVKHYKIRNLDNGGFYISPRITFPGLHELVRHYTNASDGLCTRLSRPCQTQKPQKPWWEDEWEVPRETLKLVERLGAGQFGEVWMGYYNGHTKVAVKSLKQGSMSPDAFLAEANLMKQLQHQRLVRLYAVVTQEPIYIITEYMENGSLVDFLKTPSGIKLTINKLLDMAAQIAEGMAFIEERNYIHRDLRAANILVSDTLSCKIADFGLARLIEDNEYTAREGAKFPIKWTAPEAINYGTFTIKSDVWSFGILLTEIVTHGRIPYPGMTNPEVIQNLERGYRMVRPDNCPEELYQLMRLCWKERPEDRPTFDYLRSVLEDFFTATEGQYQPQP
Sequence of NTRK2 (TRKB) (Q16620 32-822): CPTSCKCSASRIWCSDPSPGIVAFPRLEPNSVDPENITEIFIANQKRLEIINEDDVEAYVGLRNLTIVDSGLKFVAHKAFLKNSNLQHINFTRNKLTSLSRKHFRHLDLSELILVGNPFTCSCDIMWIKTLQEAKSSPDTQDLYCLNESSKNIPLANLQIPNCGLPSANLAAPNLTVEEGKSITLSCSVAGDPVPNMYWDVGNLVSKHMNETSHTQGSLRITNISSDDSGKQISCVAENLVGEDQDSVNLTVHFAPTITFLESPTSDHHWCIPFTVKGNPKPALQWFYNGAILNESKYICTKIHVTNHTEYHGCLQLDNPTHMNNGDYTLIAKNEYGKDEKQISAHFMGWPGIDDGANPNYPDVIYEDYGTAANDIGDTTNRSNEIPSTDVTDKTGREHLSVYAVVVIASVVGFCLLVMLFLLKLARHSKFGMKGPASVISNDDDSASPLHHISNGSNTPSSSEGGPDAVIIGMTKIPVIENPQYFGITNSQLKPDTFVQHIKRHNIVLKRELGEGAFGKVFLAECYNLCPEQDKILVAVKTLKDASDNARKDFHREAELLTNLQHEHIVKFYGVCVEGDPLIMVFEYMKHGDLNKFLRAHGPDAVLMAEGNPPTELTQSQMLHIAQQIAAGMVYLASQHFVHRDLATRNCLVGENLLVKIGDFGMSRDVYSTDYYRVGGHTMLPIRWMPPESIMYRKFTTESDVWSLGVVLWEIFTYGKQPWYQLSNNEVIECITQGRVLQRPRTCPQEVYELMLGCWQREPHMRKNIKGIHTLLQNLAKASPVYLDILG
Sequence of PRKCB2 (PKC beta II) (P05771 1-673 isoform P05771-2): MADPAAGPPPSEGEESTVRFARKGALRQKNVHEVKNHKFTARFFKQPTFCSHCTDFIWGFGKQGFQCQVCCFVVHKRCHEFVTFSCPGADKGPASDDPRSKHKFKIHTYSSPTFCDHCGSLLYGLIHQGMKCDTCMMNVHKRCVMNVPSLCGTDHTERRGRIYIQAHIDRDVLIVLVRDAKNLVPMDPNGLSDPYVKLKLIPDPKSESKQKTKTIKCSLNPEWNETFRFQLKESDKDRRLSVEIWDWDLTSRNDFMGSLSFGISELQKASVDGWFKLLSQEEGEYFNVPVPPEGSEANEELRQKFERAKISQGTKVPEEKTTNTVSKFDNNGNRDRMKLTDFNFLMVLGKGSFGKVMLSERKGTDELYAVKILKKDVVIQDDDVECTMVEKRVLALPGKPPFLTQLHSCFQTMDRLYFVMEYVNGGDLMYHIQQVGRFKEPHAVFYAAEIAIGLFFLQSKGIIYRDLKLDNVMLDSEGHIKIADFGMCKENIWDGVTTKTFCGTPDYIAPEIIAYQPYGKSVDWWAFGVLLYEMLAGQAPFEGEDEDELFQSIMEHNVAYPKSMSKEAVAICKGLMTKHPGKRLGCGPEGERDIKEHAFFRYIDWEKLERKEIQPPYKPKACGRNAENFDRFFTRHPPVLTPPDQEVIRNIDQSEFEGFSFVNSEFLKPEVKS
Sequence of GRK6 (P43250 whole entry): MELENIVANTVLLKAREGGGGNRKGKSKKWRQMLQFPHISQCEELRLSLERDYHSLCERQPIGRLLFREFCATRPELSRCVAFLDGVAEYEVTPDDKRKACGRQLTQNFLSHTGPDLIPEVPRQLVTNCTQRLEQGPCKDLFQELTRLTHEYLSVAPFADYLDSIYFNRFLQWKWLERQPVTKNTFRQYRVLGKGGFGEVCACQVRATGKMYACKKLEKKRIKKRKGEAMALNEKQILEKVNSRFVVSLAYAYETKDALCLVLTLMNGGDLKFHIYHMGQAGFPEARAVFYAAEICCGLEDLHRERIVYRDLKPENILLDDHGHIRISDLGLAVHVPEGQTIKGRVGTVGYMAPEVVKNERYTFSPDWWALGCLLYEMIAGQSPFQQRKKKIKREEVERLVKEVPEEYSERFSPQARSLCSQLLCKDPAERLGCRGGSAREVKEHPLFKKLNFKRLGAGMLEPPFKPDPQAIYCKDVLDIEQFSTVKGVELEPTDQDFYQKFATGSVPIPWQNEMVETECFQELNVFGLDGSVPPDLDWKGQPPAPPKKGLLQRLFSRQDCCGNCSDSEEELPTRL

SMILES	inhibition at 1 µM (SGKL (SGK3)) [%]	inhibition at 1 µM (NTRK2 (TRKB)) [%]	inhibition at 1 µM (LCK) [%]	inhibition at 1 µM (TXK) [%]	inhibition at 1 µM (PRKD1 (PKC mu)) [%]	inhibition at 1 µM (PRKCQ (PKC theta)) [%]	inhibition at 1 µM (PRKCA (PKC alpha)) [%]	inhibition at 1 µM (PRKCB2 (PKC beta II)) [%]	inhibition at 1 µM (ACVR1B (ALK4)) [%]	inhibition at 1 µM (GRK6) [%]	inhibition at 1 µM (MARK2) [%]
C=CC(=O)Nc1ccc2c(c1)n(C1CCN(Cc3ccc(-c4nc5cc[nH]c(=O)c5cc4-c4ccccc4)cc3)CC1)c(=O)n2C [24b]	-5	0	-3	-5	13	7	23	-5	-1	0	4
C=CC(=O)Nc1cccc(C(=O)NC2CCN(Cc3ccc(-c4nc5cc[nH]c(=O)c5cc4-c4ccccc4)cc3)CC2)c1 [30b]	-4	8	8	2	6	13	27	-1	0	3	4
C=CC(=O)Nc1cc(NC(=O)NC2CCN(Cc3ccc(-c4nc5cc[nH]c(=O)c5cc4-c4ccccc4)cc3)CC2)ccc1Cl [compound 27]	-1	1	4	-9	17	11	16	-12	-8		6
